Source: patent US20240124408A1 (Sanofi, priority 2020, published 2024)

Legend:
Assay type in all cases: cell-based
human TRPM8 [1] = molecular target: T1, human TRPM8 (Homo sapiens, UniProt Q7Z2W7); test: In vitro human TRPM8 fluorescence calcium flux assay (recombinant CHO cells, Fluo4-AM, FDSS6000); conditions: recombinant CHO cells expressing human TRPM8; menthol-related EC50, normalized to 100 μM menthol
T1 construct: expressed in transfected cells; host or cells: CHO (p658 mammalian expression vector)
Outline: (§1)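 Agonist EC50 values come from sixteen-point dose responses normalized to the 100 μM menthol maximum, fitted sigmoidally. Calcium rise was followed for 3 min post-addition in recombinant CHO lines (human or pig TRPM8). Cells were dye-loaded with 2 μM Fluo4-AM, 1 h at room temperature, probenecid-containing HBSS.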

pig TRPM8 [2] = molecular target: T2, pig TRPM8 (Sus scrofa, UniProt F1SM15); test: In vitro pig TRPM8 fluorescence calcium flux assay (recombinant CHO cells, Fluo4-AM, FDSS6000); conditions: recombinant CHO cells expressing pig TRPM8; menthol-related EC50, normalized to 100 μM menthol
T2 construct: expressed in transfected cells; host or cells: CHO (pcDNA5/FRT/TO vector; hygromycin B and blasticidin selection)
Outline: as §1

human TRPM8 [3] = molecular target: T1, human TRPM8; test: In vitro human TRPM8 automated patch-clamp assay (SyncroPatch 384PE, CHO cells); conditions: CHO cells expressing human TRPM8, 28° C.
Outline: (§2)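 Whole-cell automated patch clamp on engineered CHO lines at 28 °C, held at −60 mV, with −80 to +80 mV ramps every 5 s; one compound concentration per well. Peak current minus pre-addition baseline was normalised to no-compound control and Emax, and EC50 was fitted; 200 μM menthol wells served as control.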

pig TRPM8 [4] = molecular target: T2, pig TRPM8; test: In vitro pig TRPM8 automated patch-clamp assay (SyncroPatch 384PE, CHO cells); conditions: CHO cells expressing pig TRPM8, 28° C.
Outline: as §2

T1 sequence (Q7Z2W7 whole entry): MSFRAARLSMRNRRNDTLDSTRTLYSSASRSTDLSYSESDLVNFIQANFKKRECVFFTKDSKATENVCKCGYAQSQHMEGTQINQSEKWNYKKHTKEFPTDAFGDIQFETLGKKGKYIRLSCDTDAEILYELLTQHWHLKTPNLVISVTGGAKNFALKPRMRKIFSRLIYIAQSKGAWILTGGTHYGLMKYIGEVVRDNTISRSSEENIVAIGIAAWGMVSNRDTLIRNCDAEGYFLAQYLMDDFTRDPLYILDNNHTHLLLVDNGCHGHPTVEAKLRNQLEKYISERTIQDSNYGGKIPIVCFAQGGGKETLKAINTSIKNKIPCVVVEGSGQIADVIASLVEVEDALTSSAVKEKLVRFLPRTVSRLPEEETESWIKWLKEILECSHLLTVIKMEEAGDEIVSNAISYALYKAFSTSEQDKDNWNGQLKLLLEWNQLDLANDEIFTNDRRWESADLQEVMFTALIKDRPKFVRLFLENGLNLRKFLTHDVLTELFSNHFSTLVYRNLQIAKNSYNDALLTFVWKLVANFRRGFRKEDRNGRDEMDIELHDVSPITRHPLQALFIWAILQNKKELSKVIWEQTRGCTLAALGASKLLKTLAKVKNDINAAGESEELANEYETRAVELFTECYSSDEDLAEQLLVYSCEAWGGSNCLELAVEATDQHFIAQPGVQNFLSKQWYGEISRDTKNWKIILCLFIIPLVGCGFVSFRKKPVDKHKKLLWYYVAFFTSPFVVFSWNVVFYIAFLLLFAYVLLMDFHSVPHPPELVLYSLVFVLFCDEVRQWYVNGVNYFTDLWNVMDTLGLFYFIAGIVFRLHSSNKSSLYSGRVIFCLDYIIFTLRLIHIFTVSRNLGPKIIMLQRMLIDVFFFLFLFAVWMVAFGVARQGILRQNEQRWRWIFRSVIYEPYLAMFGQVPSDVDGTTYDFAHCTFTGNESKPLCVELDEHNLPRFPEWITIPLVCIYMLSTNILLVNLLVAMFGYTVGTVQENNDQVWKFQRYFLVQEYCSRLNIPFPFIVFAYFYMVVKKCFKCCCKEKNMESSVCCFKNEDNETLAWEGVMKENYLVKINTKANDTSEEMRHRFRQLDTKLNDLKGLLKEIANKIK
T2 sequence (F1SM15 1-1104): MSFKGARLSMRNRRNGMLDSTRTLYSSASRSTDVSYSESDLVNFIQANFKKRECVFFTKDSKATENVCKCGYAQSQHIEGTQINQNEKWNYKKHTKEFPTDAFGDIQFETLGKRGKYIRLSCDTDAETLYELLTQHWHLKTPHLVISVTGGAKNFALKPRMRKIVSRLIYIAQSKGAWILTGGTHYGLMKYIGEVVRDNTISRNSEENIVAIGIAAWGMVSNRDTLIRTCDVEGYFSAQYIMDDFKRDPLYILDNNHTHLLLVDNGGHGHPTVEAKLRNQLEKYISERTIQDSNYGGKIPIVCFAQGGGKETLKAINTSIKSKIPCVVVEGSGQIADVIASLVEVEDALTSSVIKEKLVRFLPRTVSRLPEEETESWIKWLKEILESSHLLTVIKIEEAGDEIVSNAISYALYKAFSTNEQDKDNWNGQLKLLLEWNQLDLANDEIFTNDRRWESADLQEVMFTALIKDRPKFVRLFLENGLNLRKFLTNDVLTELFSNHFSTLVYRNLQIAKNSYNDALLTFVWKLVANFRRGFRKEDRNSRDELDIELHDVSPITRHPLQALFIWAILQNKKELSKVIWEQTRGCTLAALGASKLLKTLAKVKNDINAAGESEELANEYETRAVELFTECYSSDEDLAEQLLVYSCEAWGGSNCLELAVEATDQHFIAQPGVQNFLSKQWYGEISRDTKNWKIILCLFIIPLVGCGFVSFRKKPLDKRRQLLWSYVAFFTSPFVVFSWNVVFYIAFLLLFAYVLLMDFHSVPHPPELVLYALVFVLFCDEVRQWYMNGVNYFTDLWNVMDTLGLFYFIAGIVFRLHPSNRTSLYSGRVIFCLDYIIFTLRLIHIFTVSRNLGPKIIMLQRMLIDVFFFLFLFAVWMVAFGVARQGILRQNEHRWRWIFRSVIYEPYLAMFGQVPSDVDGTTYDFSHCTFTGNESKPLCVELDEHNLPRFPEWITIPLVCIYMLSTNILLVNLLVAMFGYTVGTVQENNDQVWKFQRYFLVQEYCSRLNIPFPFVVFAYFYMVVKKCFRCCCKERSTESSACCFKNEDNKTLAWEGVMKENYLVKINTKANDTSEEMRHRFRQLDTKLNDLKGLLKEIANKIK

| SMILES | EC50 (human TRPM8 [1]) | EC50 (pig TRPM8 [2]) | EC50 (human TRPM8 [3]) | EC50 (pig TRPM8 [4]) |
| --- | --- | --- | --- | --- |
| CC(C)[C@@H]1CC[C@@H](C)C[C@@]1(O)C(=O)NCCc1ccccc1O [Example 116, (1S,2S,5R)-1-hydroxy-N-[2-(2-hydroxyphenyl)ethyl]-2-isopropyl-5-methyl-cyclohexanecarboxamide] | 3.3 nM | 2.5 nM | 1300 nM | 504 nM |
| CC(C)[C@@H]1CC[C@@H](C)C[C@@]1(O)C(=O)NCCc1ccc(O)cc1 [Example 117, (1S,2S,5R)-1-hydroxy-N-[2-(4-hydroxyphenyl)ethyl]-2-isopropyl-5-methyl-cyclohexanecarboxamide] | 17.8 nM | 4.5 nM | 2500 nM | 2330 nM |
| CC(C)[C@@H]1CC[C@@H](C)C[C@@]1(O)C(=O)NCCc1ccncc1 [Example 119, (1S,2S,5R)-1-hydroxy-2-isopropyl-5-methyl-N-[2-(4-pyridyl)ethyl]cyclohexanecarboxamide] | 37.4 nM | 6.3 nM | 3200 nM | 7210 nM |
| CC(C)[C@@H]1CC[C@@H](C)C[C@@]1(O)C(=O)NCCOc1ccccc1 [Example 120, (1S,2S,5R)-1-hydroxy-2-isopropyl-5-methyl-N-(2-phenoxyethyl)cyclohexanecarboxamide] | 31.1 nM | 13.9 nM | 3600 nM | 5600 nM |
| CC(C)[C@@H]1CC[C@@H](C)C[C@@]1(O)C(=O)NCCc1cccnc1 [Example 124, (1S,2S,5R)-1-hydroxy-2-isopropyl-5-methyl-N-[2-(3-pyridyl)ethyl]cyclohexanecarboxamide] | 36.6 nM | 11.7 nM | 6500 nM | 6760 nM |
| CC(C)[C@@H]1CC[C@@H](C)C[C@@]1(O)C(=O)NCCc1ccccn1 [Example 125, (1S,2S,5R)-1-hydroxy-2-isopropyl-5-methyl-N-[2-(2-pyridyl)ethyl]cyclohexanecarboxamide] | 42.3 nM | 15.2 nM | 5900 nM | 7740 nM |
| CC(C)[C@@H]1CC[C@@H](C)C[C@@]1(O)C(=O)NCC(=O)Nc1ccccc1 [Example 129, (1S,2S,5R)-N-(2-anilino-2-oxo-ethyl)-1-hydroxy-2-isopropyl-5-methyl-cyclohexanecarboxamide] | 6.9 nM | 2.6 nM | 3000 nM | 1250 nM |
| CC(C)[C@@H]1CC[C@@H](C)C[C@@]1(O)C(=O)NCC(=O)c1ccc(F)c(F)c1 [Example 136, (1S,2S,5R)-N-[2-(3,4-difluorophenyl)-2-oxo-ethyl]-1-hydroxy-2-isopropyl-5-methyl-cyclohexanecarboxamide] | 2.7 nM | 1.3 nM | 610 nM | 510 nM |
| CC(C)[C@@H]1CC[C@@H](C)C[C@@]1(O)C(=O)NCC(=O)c1cccc(F)c1F [Example 142, (1S,2S,5R)-N-[2-(2,3-difluorophenyl)-2-oxo-ethyl]-1-hydroxy-2-isopropyl-5-methyl-cyclohexanecarboxamide] | 12 nM | 4 nM | 1410 nM | 3290 nM |
| CC(C)[C@@H]1CC[C@@H](C)C[C@@]1(O)C(=O)NCC(=O)c1ccc(O)cc1 [Example 143, (1S,2S,5R)-1-hydroxy-N-[2-(4-hydroxyphenyl)-2-oxo-ethyl]-2-isopropyl-5-methyl-cyclohexanecarboxamide] | 5.6 nM | 7.3 nM | 1100 nM | 985 nM |
| CC(C)[C@@H]1CC[C@@H](C)C[C@@]1(O)C(=O)NCC1(O)CCc2ccc(Cl)cc21 (stereo partly drawn) [Example 145, (1S,2S,5R)-N-[(6-chloro-1-hydroxy-indan-1-yl)methyl]-1-hydroxy-2-isopropyl-5-methyl-cyclohexanecarboxamide] | 2.9 nM | 2.7 nM | 230 nM | 515 nM |
| CC(C)[C@@H]1CC[C@@H](C)C[C@@]1(O)C(=O)N[C@H](CO)Cc1ccccc1 [Example 146, (1S,2S,5R)-N-[(1S)-1-benzyl-2-hydroxy-ethyl]-1-hydroxy-2-isopropyl-5-methyl-cyclohexanecarboxamide] | 16 nM | 16 nM | 1200 nM | 2390 nM |
| CC(C)[C@@H]1CC[C@@H](C)C[C@@]1(O)C(=O)NCC(=O)c1cccs1 [Example 149, (1S,2S,5R)-1-hydroxy-2-isopropyl-5-methyl-N-[2-oxo-2-(2-thienyl)ethyl]cyclohexanecarboxamide] | 6 nM | 2 nM | 2300 nM | 1560 nM |

Next, values leading:

| EC50 (human TRPM8 [1]) | EC50 (pig TRPM8 [2]) | EC50 (human TRPM8 [3]) | EC50 (pig TRPM8 [4]) | SMILES |
| --- | --- | --- | --- | --- |
| 23.8 nM | 17.4 nM | 1200 nM | 3500 nM | COc1ccccc1CCNC(=O)[C@]1(O)C[C@H](C)CC[C@H]1C(C)C [Example 155, (1S,2S,5R)-1-hydroxy-2-isopropyl-N-[2-(2-methoxyphenyl)ethyl]-5-methyl-cyclohexanecarboxamide] |
| 42.4 nM | 21.5 nM | 1800 nM | 1900 nM | CC(CNC(=O)[C@]1(O)C[C@H](C)CC[C@H]1C(C)C)c1ccccc1 (stereo partly drawn) [Example 156, (1S,2S,5R)-1-hydroxy-2-isopropyl-5-methyl-N-(2-phenylpropyl)cyclohexanecarboxamide] |
| 7 nM | 3 nM | 1900 nM | 940 nM | CC(C)[C@@H]1CC[C@@H](C)C[C@@]1(O)C(=O)NCC(O)c1ccc(F)cc1 (stereo partly drawn) [Example 158, (1S,2S,5R)-N-[2-(4-fluorophenyl)-2-hydroxy-ethyl]-1-hydroxy-2-isopropyl-5-methyl-cyclohexanecarboxamide] |
| 9.2 nM | 4.9 nM | 1000 nM | 1030 nM | CC(C)[C@@H]1CC[C@@H](C)C[C@@]1(O)C(=O)NCCc1cccc2c1OCC2 [Example 159, (1S,2S,5R)-N-[2-(2,3-dihydrobenzofuran-7-yl)ethyl]-1-hydroxy-2-isopropyl-5-methyl-cyclohexanecarboxamide] |
| 16.1 nM | 16.4 nM | 620 nM | 480 nM | CC(C)[C@@H]1CC[C@@H](C)C[C@@]1(O)C(=O)NCC(O)c1ccccc1Cl (stereo partly drawn) [Example 160, (1S,2S,5R)-N-[2-(2-chlorophenyl)-2-hydroxy-ethyl]-1-hydroxy-2-isopropyl-5-methyl-cyclohexanecarboxamide] |
| 34.3 nM | 21.2 nM | 2200 nM | 1040 nM | CC(C)[C@@H]1CC[C@@H](C)C[C@@]1(O)C(=O)NCC(C)(O)c1ccccc1 (stereo partly drawn) [Example 164, (1S,2S,5R)-1-hydroxy-N-(2-hydroxy-2-phenyl-propyl)-2-isopropyl-5-methyl-cyclohexanecarboxamide] |
| 1.1 nM | 0.6 nM | 590 nM | 598 nM | CC(C)[C@@H]1CC[C@@H](C)C[C@@]1(O)C(=O)NC[C@H](F)c1ccccc1 [Example 179, (1S,2S,5R)—N-((2R)-2-fluoro-2-phenylethyl)-1-hydroxy-2-isopropyl-5-methylcyclohexane-1-carboxamide] |
| 3 nM | 1.2 nM | 1700 nM | 1010 nM | CC(C)[C@@H]1CC[C@@H](C)C[C@@]1(O)C(=O)NC[C@@H](F)c1ccccc1 [Example 180, (1S,2S,5R)—N-((2S)-2-fluoro-2-phenylethyl)-1-hydroxy-2-isopropyl-5-methylcyclohexane-1-carboxamide] |
| 43.9 nM | 26.1 nM | 1000 nM | 2100 nM | COc1ccccc1C(F)(F)CNC(=O)[C@]1(O)C[C@H](C)CC[C@H]1C(C)C [Example 186, (1S,2S,5R)—N-[2,2-difluoro-2-(2-methoxyphenyl)ethyl]-1-hydroxy-2-isopropyl-5-methyl-cyclohexanecarboxamide] |
| 33.8 nM | 6.2 nM | 510 nM | 550 nM | Cc1cccc(C(F)(F)CNC(=O)[C@]2(O)C[C@H](C)CC[C@H]2C(C)C)c1 [Example 187, (1S,2S,5R)—N-[2,2-difluoro-2-(3-methylphenyl)ethyl]-1-hydroxy-2-isopropyl-5-methyl-cyclohexanecarboxamide] |
